Measurements reported in patent publication US11149008B2, “Sulfamide derivatives and preparation method and use thereof” (HitGen Ltd., priority 2015, dated 2021).

Target: T1, HDAC 3 (Homo sapiens, UniProt O15379)
T1 construct: purchased BPS Bioscience #50003
Assay: Enzyme activity detection of histone deacetylase 3 (fluorogenic substrate deacetylation)
Type: biochemical
Conditions: 0.16 ng/μL HDAC 3, 10 μM substrate; IC50 class
From the text: During the deacetylation detection of a substrate, the HDAC inhibition activity of the compound of the present invention was detected.
B: Enzyme Activity Detection of Histone Deacetylase 3 (#50003, BPS Bioscience)
Acetyl on the substrate was removed by the HDAC 3, so that the substrate was activated, and the developing liquid added subsequently could act on the substrate to release the fluorescent group. The size of the fluorescence signal reflected the activity of the HDAC 3. The IC50 detection method for this enzyme was disclosed in Chuping Xu, Elisabetta Soragni Improved Histone Deacetylase Inhibitors as Therapeutics for the Neurdegenerative Disease Friedreich's Ataxia: A New Synthetic Route. The total reaction system (100 μL/well) contained 0.16 ng/μL of HDAC 3, 10 μM of the substrate and the compound in different concentrations. The fluorescence signal was detected online at Ex/Em=360/460. The inhibition effect of the compound was determined from the obtained data, a concentration response curve was obtained by using the inhibition effect and the concentration of the compound, and the value of IC50 was fitted according to a four-parameter model.
The activities of the compounds prepared in the embodiments against the histone deacetylases 1, 3 and 6 (i.e., HDAC 1, HDAC 3 and HDAC 6) were detected by the above methods, and the test results were shown in Table 2, where the measurements of IC50 of the compounds were classified according to the following description: […]

T1 sequence (O15379 whole entry): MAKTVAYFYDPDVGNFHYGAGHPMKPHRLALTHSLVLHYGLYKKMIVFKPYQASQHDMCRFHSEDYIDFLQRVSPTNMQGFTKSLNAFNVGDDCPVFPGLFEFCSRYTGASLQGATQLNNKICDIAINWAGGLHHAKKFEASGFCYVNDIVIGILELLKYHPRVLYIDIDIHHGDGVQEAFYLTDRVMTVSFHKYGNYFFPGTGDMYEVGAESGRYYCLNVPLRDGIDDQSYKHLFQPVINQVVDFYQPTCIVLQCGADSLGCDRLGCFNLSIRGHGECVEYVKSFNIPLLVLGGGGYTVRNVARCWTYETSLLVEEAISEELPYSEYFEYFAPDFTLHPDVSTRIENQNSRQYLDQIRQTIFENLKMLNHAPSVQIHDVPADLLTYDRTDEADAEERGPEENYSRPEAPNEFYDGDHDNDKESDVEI
T1 sequence (Q9Y618 395-489 partner limits assumed): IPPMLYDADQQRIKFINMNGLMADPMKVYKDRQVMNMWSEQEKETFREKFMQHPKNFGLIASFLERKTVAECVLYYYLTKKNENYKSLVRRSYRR

## CN1CCN(c2ccc(-c3ccc(S(=O)(=O)N4CC=C(C(=O)NO)CC4)cc3)cc2)CC1 [Compound 29, N-hydroxyl-1-((4′-(4-methylpiperazinyl)-[1,1′-biphenyl]-4-yl)sulfonyl)-1,2,3,6-tetrahydropyridine-4-formamide]
  IC50: < 100 nM
